Laboratory results published in patent US20250205195A1, “BENZYLOXY-BENZYLAMINYL AMINO ACID DERIVATIVE FOR ADJUSTING TSLP/TSLPR SIGNAL TRANSMISSION” (AMTIXBIO CO., LTD., priority 2021, published 2025).

Key:
[1] = test system: DNCB-induced atopic dermatitis mice; test: DNCB-induced atopic dermatitis mouse model; format: in vivo, ICR mice; conditions: vs DNCB-treated group
Description: ICR mice (Orient Bio Inc., male, 4 weeks old) were used, with four mice per group. The mice were acclimatized for one week under controlled conditions (23±2° C., humidity 55±10%, 12-hour light/dark cycle, animal facility at Sungkyunkwan University) and were shaved using clippers and depilatory cream before drug treatment. Following the conventional method, 1% DNCB (2,4-dinitrochlorobenzene, Sigma-Aldrich Co., St. Louis, USA) (200 l) was applied to the dorsal area of the mice every 2 days, four times a week for one week. Subsequently, 0.5% DNCB (200 l) was applied again at 2-day intervals, eight times, to induce atopic dermatitis (Ara, J., Mol Cell Toxicol 2019). One week after DNCB treatment, signs of lesions were confirmed in all mice. Then, the mice were topically administered with the compound 27 of the present invention, dissolved in sterile water at a concentration of 1% (w/v), starting from the point of 0.5% DNCB application, once daily for two weeks. The experimental animals were supplied with powdered feed (Purina, Switzerland), and water and feed were freely available throughout the experimental period. Symptoms associated with atopic dermatitis, such as erythema, edema, scaling, crusting, lichenification, inflammation, bleeding and skin dryness, were observed and recorded according to the Scoring Atopic Dermatitis (SCORAD) index in Table 2.
Using the Mosquito Blood Collection System, blood was drawn from the retro-orbital plexus, and serum was separated. Skin tissue proteins were extracted using a homogenizer in 0.2% PBS (phosphate buffer saline). To measure the concentration of IgE, an IgE ELISA kit (Shibayagi, Japan) was used following the manufacturer's instructions, and analysis was performed using an ELISA reader. The concentrations of TNF-α, IL-4, CCL22/MDC, MMP-12, and S100A9 were measured using Luminex® Assays (R&D Systems, USA).
Skin tissues from the mouse dorsal area were separated and fixed in 10% formalin (10% Neutral Buffered Formalin, Kang Dong Trading, South Korea) for 72 hours. The fixed tissues were washed with water for about 1 hour and then processed into paraffin blocks. The paraffin blocks were sectioned into 8 m slices using a microtome, followed by staining with Harris's hematoxylin solution. Subsequently, the sections were treated with 1% HCl-alcohol, neutralized with 0.5% ammonia solution, and stained with Eosin solution. Next, dehydration was performed using alcohol and xylene, and the sections were mounted on slides using Canada balsam. FIGS. 7 (a) and (b) represent the results.
To determine the concentrations of IgE and TSLP in mouse serum, IgE ELISA kit (Shibayagi, JP) and TSLP ELISA kit (R&D systems, USA) were used following the manufacturer's instructions. As shown in FIGS. 8 (a) and (b), the serum concentrations of IgE and TSLP increased in the DNCB-treated group.
Proteins were extracted from skin tissues of atopic dermatitis mice on the dorsal area, and the levels of TNF-α, IL-1β, CCL22/MDC, IL-4, MMP-12, and S100A9 were measured using Luminex® Assays (R&D systems, USA).

[2] = test system: p-STAT5; test: TSLP-induced p-STAT5 in bone marrow-derived dendritic cells (BMDCs), Western blot; format: cell-based, mouse
Description: C57BL/6J mice (JA BIO, DBL-0011, male, 6-12 weeks old) were euthanized, and femurs and tibias were separated after cervical dislocation and then were stored in PBS (HyClone, Cat No. SH30028.02). After removing tissues as much as possible from femurs and tibias, both ends of the bones were cut vertically, and bone marrow was quickly collected with a 5 mL syringe (Korea Vaccine, 5 cc syringe 22 g). After centrifugation at 1800 rpm for 3 minutes, the supernatant was discarded, 10 mL PBS was added to resuspend the cells, and the mixture was filtered through a 100 µm cell strainer. […]
The obtained BMDCs were pre-treated with compound 27, Jak1 inhibitor (Filgotinib, Selleck, Cat No. JS7605), or Jak2 inhibitor (SD-1029, Sigma, Cat No. 573098) 30 minutes or 1 hour prior to treatment. […] After quantifying the protein using the BCA protein assay kit (Thermo, Cat No. 23225), 5×SDS-PAGE loading buffer (Biosesang, Cat No. SF2002-110-00) was added, boiled for 5 minutes at 103° C., and stored at −20° C. […]
BR1706516)] for 2 hours at room temperature. After washing with TBS-T, the membrane was incubated with ECL solution (Thermo, Cat No. 32209), and protein bands were detected using the iBright imaging system (Invitrogen, Model No. FL1500). Each band intensity was measured using ImageJ software (version 1.38; National Institutes of Health), and the pSTAT5/STAT ratio was calculated. […]

For `CCC(NC)C(=O)NCc1ccc(OCc2ccc(C(F)(F)F)cc2)cc1` (racemic) [Compound 27, (R)/(S)-2-(methylamino)-N-(4-((4-trifluoromethyl)benzyl)oxy)benzyl)butanamide], the “CCL22/MDC level in skin tissue” value ([1]; Luminex) was “significant decrease”, the “IL-1β level in skin tissue” value ([1]; Luminex) was “significant decrease” and the “IL-4 level in skin tissue” value ([1]; Luminex) was “significant decrease”. For the same molecule, the “MMP-12 level in skin tissue” value ([1]; Luminex) was “significant decrease”, the “S100A9 level in skin tissue” value ([1]; Luminex) was “significant decrease” and the “TNF-α level in skin tissue” value ([1]; Luminex) was “significant decrease”. For the same molecule, the “symptoms of dermatitis (SCORAD index)” value ([1]; topical 1% (w/v), once daily, two weeks) was “significant reduction”, the “expression of inflammatory cells (H&E, skin tissue)” value ([1]; topical 1% (w/v)) was “significant decrease” and the “serum IgE concentration” value ([1]; topical 1% (w/v)) was “decrease”. The “serum TSLP concentration” value ([1]; topical 1% (w/v)) was “decrease”, the “thickness of the epidermal layer” value ([1]; topical 1% (w/v)) was “significant reduction” and the “reduction in p-STAT5” value ([2]; 2 pM, compared to the TSLP-treated group) was 51%. The “p-STAT5 (pSTAT5/STAT ratio)” value ([2]; BMDCs, TSLP treatment) was “significantly reduced”.
